The structures appear in SMILES notation. Calls of active or inactive are those of the source.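 How the source made its calls: active means compounds that disrupt early egg division and make hatched embryos spin fast in place instead of swimming forward; inactive means the rest.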

Test system in one assay: not listed separately
As to the kind of experiment: sea urchin embryo cleavage alteration, tubulin destabilizer project, whole organism, microscopy (AID 351). Conditions: sea urchin embryo, cleavage alteration, microscopy.
As for `COc1ccc(-c2nc(C)n3ccc4cc(OC)c(OC)cc4c23)cc1OC`, the outcome was “inactive; up to 10 µM”.
Still for that read-out and setting: as for `CS(=O)(=O)c1ccc(Nc2nnc(-c3ccccc3N)o2)cc1`, the entry is “inactive; up to 5 mM”.
On the same count and under the same terms, as for `NC(=O)C(=O)c1cn(Cc2ccc(F)cc2)c2ccccc12`, the entry is “inactive; up to 50 µM”.
`CCN(CC)C(=O)C(=O)c1cn(Cc2ccc(F)cc2)c2ccccc12`: the outcome was “inactive; up to 50 µM”.
On the same count and under the same terms, as for `O=C(Nc1cccc(C(F)(F)F)c1)c1nscc1NCc1ccc2c(c1)OCO2`, the entry is “inactive; up to 5 µM”; as for `O=C(Nc1cccc(F)c1)C(=O)c1cn(Cc2ccc(Cl)cc2)c2ccccc12`, “inactive; up to 5 mM”.
`NC(=O)c1nscc1NCc1ccncc1`: the outcome is “inactive; up to 5 µM”.
As to `O=C(Nc1cccc(C(F)(F)F)c1)c1nscc1NCc1ccncc1`, the outcome was “inactive; up to 1 µM”.
Turning to `COc1cc(N)c(C(O)c2nccc3cc(OC)c(OC)cc23)cc1OC` (configuration not stated), the outcome was “inactive; up to 50 µM”.
On the same count and under the same terms, as for `COc1ccc(-c2oc(=O)oc2-c2ccc(OC)c(OC)c2)cc1OC`, the entry is “inactive; up to 5 mM”.
The same measure, in the same setting: as for `O=C(Nc1ccc(F)cc1)C(=O)c1cn(Cc2ccc(Cl)cc2)c2ccccc12`, the entry is “inactive; up to 5 mM”; as for `O=C(C(=O)c1ccc2c(c1)OCO2)c1ccc2c(c1)OCO2`, “inactive; up to 2 mM”.
Turning to `c1cncc(CNc2cn[nH]c2-c2nnc(Nc3ccc4c(c3)OCCO4)o2)c1`, the outcome was “inactive; up to 10 µM”.
For `COc1ccc2[nH]cc(CCN3C(=O)OC(C)(C)C3(C)O)c2c1` (configuration not stated), the outcome is “inactive; up to 10 µM”.
Same read-out and setting: as for `COc1ccc2[nH]cc(CCNC(C)=O)c2c1`, the entry is “inactive; up to 50 µM”.
Same read-out and setting: as for `Nc1nonc1-c1nc2ccccc2n1Cc1cccc(F)c1`, the entry is “inactive; up to 1 mM”.
As for `COc1ccc2[nH]c(C(=O)O)c(CCNC(C)=O)c2c1`, the outcome is “inactive; up to 50 µM”.
Turning to `O=C(Nc1ccc(OC(F)(F)F)cc1)C(=O)c1cn(Cc2ccc(Cl)cc2)c2ccccc12`, the outcome was “inactive; up to 1 µM”.
The same measure, in the same setting: as for `Nc1csnc1C(=O)Nc1cccc(C(F)(F)F)c1`, the entry is “inactive; up to 5 µM”.
Same read-out and setting: as for `COc1cccc(NC(=O)C(=O)c2c[nH]c3ccccc23)c1`, the entry is “inactive; up to 5 mM”.
On the same count and under the same terms, as for `O=C(CC1(O)C(=O)N(Cc2ccc(F)cc2)c2ccccc21)c1ccc2c(c1)OCO2` (configuration not stated), the entry is “inactive; up to 2.5 µM”; as for `COc1ccc(C2=NOC3C4COC(O4)C(=O)C23)cc1` (configuration not stated), “inactive; up to 5 mM”; as for `Clc1ccc(-c2[nH]c(-c3cccc(C#Cc4ccccc4)c3)nc2-c2ccccc2)cc1`, “inactive; up to 5 mM”.
With `Brc1cccc(-c2n[nH]c(-c3[nH]ncc3NCc3ccc4c(c3)OCO4)n2)c1`, the outcome was “inactive; up to 5 mM”.
The same measure, in the same setting: as for `COc1ccc(C(=O)c2c(N)nc3n2CCC3)cc1OC`, the entry is “inactive; up to 5 mM”; as for `COc1ccc(Nc2nc(-c3ccc(OC)c(OC)c3)cs2)cc1`, “inactive; up to 50 µM”.
Take `CC(=O)Nc1ccccc1-c1cc(C)c2ccccc2n1`: the outcome was “inactive; up to 50 µM”.
On to `Cc1ccc(Nc2nc(-c3c(C)nc4ccccn34)cs2)c(C)c1`, for which the outcome is “inactive; up to 5 mM”.
Still for that read-out and setting: as for `COc1ccc(Cc2nc(-c3nonc3N)no2)cc1OC`, the entry is “inactive; up to 100 mM”; as for `COc1cc(C(=O)NCCc2c(C)[nH]c3ccc(OC(F)(F)F)cc23)cc(OC)c1OC`, “inactive; up to 50 µM”.
On the same count and under the same terms, as for `c1cncc(CNc2cn[nH]c2-c2nnc(Nc3ccc4c(c3)OCO4)o2)c1`, the entry is “inactive; up to 10 µM”; as for `Nc1nonc1-c1cccnc1`, “inactive; up to 100 mM”; as for `CCOc1cc2c(cc1OCC)C(c1cc(OC)c(O)c(OC)c1)NCC2` (configuration not stated), “inactive; up to 50 µM”.
For the molecule `COc1ccc(/C=C(/C(=O)O)c2cc(OC)c(OC)c(OC)c2)cc1O`, the outcome is “inactive; up to 10 mM”.
Same read-out and setting: as for `CCOc1cc(CNc2cccc3[nH]c(C)nc23)ccc1OC`, the entry is “inactive; up to 50 µM”; as for `Nc1csnc1-c1nnc(Nc2ccc3c(c2)OCO3)o1`, “inactive; up to 5 µM”; as for `O=C1c2c(O)cc(O)cc2OC(c2ccc(O)c(O)c2)C1O` (configuration not stated), “inactive; up to 50 µM”.
Same read-out and setting: as for `NC(=O)CCNCc1cccnc1`, the entry is “inactive; up to 10 µM”; as for `CCOc1ccc(-c2cn[nH]c2N)cc1OCC`, “inactive; up to 40 mM”; as for `O=C(Nc1ccc(C(F)(F)F)cc1)C(=O)c1cn(Cc2ccc(Cl)cc2)c2ccccc12`, “inactive; up to 0.5 µM”.
The same measure, in the same setting: as for `COc1ccc(-c2nc(Nc3nc(C)cc(C)n3)n[nH]2)cc1OC`, the entry is “inactive; up to 10 µM”; as for `Cc1onc(-c2ccccc2Cl)c1C(=O)Nc1cccnc1`, “inactive; up to 50 µM”.
For `Cn1cnc(NCc2cccnc2)c1-c1nnc(Nc2ccc3c(c2)OCCO3)o1`, the outcome was “inactive; up to 2.5 µM”.
On the same count and under the same terms, as for `Nc1nc2ccccc2cc1-c1nnc(Nc2ccc3c(c2)OCO3)o1`, the entry is “inactive; up to 2 mM”; as for `CCOc1cc2c(cc1OCC)C(c1cc(OC)c(OC)c(OC)c1)NCC2` (configuration not stated), “inactive; up to 50 µM”; as for `O=C(Nc1ccc(Cl)cc1)C(=O)c1cn(Cc2ccc(Cl)cc2)c2ccccc12`, “inactive; up to 5 mM”.
Same read-out and setting: as for `COC(=O)c1cc(=O)c(O)c2c(O)c(O)c(OC)cc2c1`, the entry is “inactive; up to 20 mM”; as for `NC(=O)c1nscc1NCc1cccnc1`, “inactive; up to 50 µM”.
On the same count and under the same terms, as for `O=C(Nc1cccc(C(F)(F)F)c1)C(=O)c1cn(Cc2ccc(Cl)cc2)c2ccccc12`, the entry is “inactive; up to 5 mM”; as for `Nc1cc2c(cc1C(=O)c1ccccc1)OCCO2`, “inactive; up to 5 mM”; as for `Nc1cn[nH]c1-c1nc(-c2ccc(C(F)(F)F)cc2)n[nH]1`, “inactive; up to 50 mM”.
Turning to `COc1ccc2[nH]c(C)c(CCN3C(=O)C4CCCCC4C3=O)c2c1` (configuration not stated), the outcome was “inactive; up to 50 µM”.
Same read-out and setting: as for `COc1cc(-c2nc(-c3ccncc3)no2)cc(OC)c1OC`, the entry is “inactive; up to 10 µM”.
The same measure, in the same setting: as for `CCOc1ccc(C2=C3c4cc(OCC)c(OCC)cc4CCN3C(=O)C2=O)cc1OCC`, the entry is “inactive; up to 50 µM”.
On the same count and under the same terms, as for `COc1ccc(-c2csc(Nc3ccccc3OC)n2)cc1Br`, the entry is “inactive; up to 5 mM”.
On to `COc1ccc(-c2nn[nH]n2)cc1OC`, for which the outcome was “inactive; up to 100 µM”.
As to `O=C(Nc1cccnc1Cl)C(=O)c1cn(Cc2ccc(Cl)cc2)c2ccccc12`, the outcome was “inactive; up to 2.5 mM”.
Still for that read-out and setting: as for `COc1cc(OC)c2c(c1)OC(c1ccc(OC)c(OC)c1)C(O)C2=O` (configuration not stated), the entry is “inactive; up to 10 µM”.
On the same count and under the same terms, as for `Cc1[nH]c2ccc(OC(F)(F)F)cc2c1CCNC(=O)Cc1ccc(Cl)cc1`, the entry is “inactive; up to 10 µM”.
As for `c1cnc(-c2nc(-c3ccc4c(c3)OCO4)no2)cn1`, the outcome is “inactive; up to 5 µM”.
Still for that read-out and setting: as for `COc1ccc(Cc2nn[nH]n2)cc1OC`, the entry is “inactive; up to 50 µM”; as for `NC(=O)C(=O)c1cn(Cc2ccc(Cl)cc2Cl)c2ccccc12`, “inactive; up to 10 µM”; as for `Cc1[nH]c2ccc(OC(F)(F)F)cc2c1CCN1C(=O)C2CCCCC2C1=O` (configuration not stated), “inactive; up to 10 µM”.
Still for that read-out and setting: as for `COc1ccc(CNc2ccccc2-c2nn[nH]n2)cc1OC`, the entry is “inactive; up to 20 mM”; as for `Brc1ccc(-c2n[nH]c(-c3[nH]ncc3NCc3ccncc3)n2)cc1`, “inactive; up to 20 mM”; as for `COc1ccc2[nH]cc(CCN)c2c1`, “inactive; up to 50 µM”.
For the molecule `O=c1c(O)c(-c2ccc(O)c(O)c2)oc2cc(O)cc(O)c12`, the outcome was “inactive; up to 100 µM”.
Consider `COC(=O)c1ccccc1NC(=O)Cn1nnc(-c2ccc(OC)cc2)n1`, for which the outcome is “inactive; up to 5 mM”.
Still for that read-out and setting: as for `Nc1[nH]ncc1-c1nnc(Nc2ccc3c(c2)OCO3)o1`, the entry is “inactive; up to 20 mM”.
`COc1cc(-c2nnc(Nc3ccc4c(c3)OCO4)o2)cc(OC)c1OC`: the outcome is “inactive; up to 5 µM”.
For `COc1ccc2[nH]c(C)c(CCNC(=O)c3ccc(OC)c(OC)c3)c2c1`, the outcome was “inactive; up to 50 µM”.
Still for that read-out and setting: as for `c1cc(-c2nc(-c3ccc4c(c3)OCO4)no2)ccn1`, the entry is “inactive; up to 50 µM”; as for `O=C(Nc1cccc(Cl)c1)C(=O)c1cn(Cc2ccc(Cl)cc2)c2ccccc12`, “inactive; up to 5 mM”.
The same measure, in the same setting: as for `COc1ccc2[nH]cc(CCNC(=O)C(F)(F)F)c2c1`, the entry is “inactive; up to 50 µM”; as for `CC(=O)OC1C(=O)C2C(O)CC3OCC3(OC(C)=O)C2C(OC(=O)c2ccccc2)C2(O)CC(OC(=O)C(O)C(NCc3ccccc3)c3ccccc3)C(C)=C1C2(C)C` (configuration not stated), “inactive; up to 50 µM”; as for `Cc1nc2ccccn2c1-c1csc(Nc2ccc(Br)cc2Br)n1`, “inactive; up to 5 mM”.
The same measure, in the same setting: as for `O=C(Nc1ccc(Br)cc1)C(=O)c1cn(Cc2ccc(Cl)cc2)c2ccccc12`, the entry is “inactive; up to 5 mM”; as for `COc1cc2ccnc(-c3c[nH]c4cc(OC)c(OC)cc34)c2cc1OC`, “inactive; up to 10 µM”.

The subject of a further assay is sea urchin embryo, cleavage alteration, microscopy. Described as above.
Conditions: not given
Regarding `Cc1nc2ncccn2c1-c1csc(Nc2ccc(Cl)cc2)n1`, the threshold concentration is 100 nM.
Same read-out and setting: as for `COc1ccc(C2=N[C@H](c3ccc(OC)cc3)[C@H](c3ccc(OC)cc3)N2)cc1`, the figure is 500 nM.
As to `COc1ccc(-c2nnc(Nc3ccc4c(c3)OCCO4)o2)c(N)c1`, the threshold concentration is 25 nM.
For the molecule `Nc1ccccc1-c1nnc(Nc2ccc3c(c2)OCCO3)o1`, the threshold concentration is 1 nM.
On the same count and under the same terms, as for `COc1ccc(NC(=O)C(=O)c2c[nH]c3ccccc23)cc1`, the figure is 1 nM; as for `O=C(Nc1ccc2c(c1)OCCO2)C(=O)c1cn(Cc2ccc(Cl)cc2)c2ccccc12`, 100 nM; as for `COc1ccc(-c2c(-c3ccccc3)noc2N)cc1OC`, 500 nM.
`COc1ccc(NC(=O)C(=O)c2cn(Cc3ccc(Cl)cc3)c3ccccc23)cc1`: the threshold concentration is 50 nM.
On the same count and under the same terms, as for `CCOc1ccc(Nc2nc(-c3c(C)nc4ncccn34)cs2)cc1`, the figure is 5 nM.

For the origin of these results see PubChem BioAssay AID351 (ChemBlock, 2006).
